Source: PMC6002448, “Evaluation of the effect of the new methoxy-stilbenes on expression of receptors and enzymes involved in estrogen synthesis in cancer breast cells” (Molecular and Cellular Biochemistry, 2017)
pIC50: −log10 of the molar value.

Molecular target: T1, CYP19 (aromatase) (Homo sapiens, UniProt P11511)
T1 construct: gene CYP19A1; human recombinant CYP19
T1 sequence (P11511 1-503): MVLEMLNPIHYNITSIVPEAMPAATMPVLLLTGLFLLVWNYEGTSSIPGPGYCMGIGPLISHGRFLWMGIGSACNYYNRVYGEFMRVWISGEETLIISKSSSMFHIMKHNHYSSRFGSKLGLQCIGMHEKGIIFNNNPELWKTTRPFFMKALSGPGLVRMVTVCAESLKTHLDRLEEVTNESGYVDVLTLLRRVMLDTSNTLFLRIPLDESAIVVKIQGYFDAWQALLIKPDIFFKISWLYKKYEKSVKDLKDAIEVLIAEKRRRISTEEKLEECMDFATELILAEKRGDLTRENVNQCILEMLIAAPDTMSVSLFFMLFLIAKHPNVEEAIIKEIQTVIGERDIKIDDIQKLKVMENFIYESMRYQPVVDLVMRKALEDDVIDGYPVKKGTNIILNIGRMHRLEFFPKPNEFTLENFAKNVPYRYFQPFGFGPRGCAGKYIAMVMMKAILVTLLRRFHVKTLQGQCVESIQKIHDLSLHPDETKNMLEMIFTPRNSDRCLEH
Assay: fluorometric CYP19/MFC inhibitor screening kit (recombinant enzyme)
Assay type: biochemical

- pIC50: ~4.07
SMILES: COc1ccccc1/C=C/c1ccc(OC)c(OC)c1 [3MS, 3,4,2′-trimethoxy-trans-stilbene]
